Measured values reported in paper PMC4389225, “Triaminopyrimidine is a fast-killing and long-acting antimalarial clinical candidate” (Nature Communications, 2015).
Read-outs that look alike come from different tables or passages of the source.

Key:
[1] = molecular target: T1, acetylcholine esterase (AChE) (Homo sapiens, UniProt P22303); experiment: AChE enzyme activity assay (CEREP); type: biochemical
T1 construct: purchased CEREP, France (external assay service) 0363
Protocol: (§1) An in vitro pharmacological profiling panel was specifically designed for the detection of potential high- risk clinical adverse drug reactions. The panel comprised of 26 diverse targets (6 enzymes, 2 transporters, 9 G-protein-coupled receptors (GPCRs), 5 ion channels along with hERG, M2, alpha1A and AchE) and was conduced externally by CEREP, France […]. […] Detailed methodology for in vitro pharmacological profiling assays provided by CEREP can be found at http://www.cerep.fr, with specific reference to the AChE (cat. no. 0363), Muscarinic M1 receptor (cat. no. 0091) and Adrenergic α1A receptor (cat. no. 2338) assays. For enzyme and kinase assays, the results were expressed as a percent inhibition of control-specific activity obtained in the presence of the test compound. The IC50 values (concentration causing a half-maximal inhibition of control-specific activity) and Hill coefficients (nH) were determined by nonlinear regression analysis of the inhibition/concentration–response curves using Hill equation curve fitting as described earlier.

[2] = molecular target: T2, Muscarinic M2 receptor (Homo sapiens, UniProt P08172); experiment: Muscarinic M2 receptor radioligand binding (CEREP)
T2 construct: purchased CEREP, France (external assay service)
T2 sequence (P08172 1-466): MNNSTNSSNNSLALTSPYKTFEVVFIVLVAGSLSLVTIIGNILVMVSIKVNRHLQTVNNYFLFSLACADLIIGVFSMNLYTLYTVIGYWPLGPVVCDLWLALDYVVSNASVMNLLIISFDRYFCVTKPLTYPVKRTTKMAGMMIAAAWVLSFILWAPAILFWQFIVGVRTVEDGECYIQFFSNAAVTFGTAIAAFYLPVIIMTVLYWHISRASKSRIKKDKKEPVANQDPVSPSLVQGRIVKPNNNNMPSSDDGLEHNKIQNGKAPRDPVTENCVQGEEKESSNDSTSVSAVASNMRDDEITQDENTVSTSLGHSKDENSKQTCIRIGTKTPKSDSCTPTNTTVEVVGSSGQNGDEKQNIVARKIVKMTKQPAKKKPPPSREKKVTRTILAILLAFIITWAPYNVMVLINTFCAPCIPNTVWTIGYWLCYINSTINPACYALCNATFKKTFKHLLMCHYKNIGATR
Protocol: as §1
For radioligand binding assays, the results are expressed as % inhibition of control-specific binding obtained in the presence of the test compounds. The IC50 values (concentration causing a half-maximal inhibition of control-specific binding) and Hill coefficients (nH) were determined by nonlinear regression analysis of the competition curves generated with mean replicate values using Hill equation curve fitting. The inhibition constants (Ki) were subsequently calculated by applying the Cheng Prusoff equation[38].

[3] = tested on: Transporter; experiment: Secondary pharmacology panel, target #7
Protocol: (§2) An in vitro pharmacological profiling panel was specifically designed for the detection of potential high- risk clinical adverse drug reactions. […] For enzyme and kinase assays, the results were expressed as a percent inhibition of control-specific activity obtained in the presence of the test compound. The IC50 values (concentration causing a half-maximal inhibition of control-specific activity) and Hill coefficients (nH) were determined by nonlinear regression analysis of the inhibition/concentration–response curves using Hill equation curve fitting as described earlier[37].
(§3) For assessment of activity against these targets, compounds were tested in an 8-point
(§4) concentration response covering half-log units up to a top test concentration of 100 µM, and
(§5) an IC50 or Ki determined using either radio ligand binding assays or enzyme activity assays.

[4] = tested on: GPCR; experiment: Secondary pharmacology panel, target #9
Protocol: as §2, §3, §4, §5

[5] = tested on: Enzyme; experiment: Secondary pharmacology panel, target #11
Protocol: (§6) For enzyme and kinase assays, the results were expressed as a percent inhibition of control-specific activity obtained in the presence of the test compound. The IC50 values (concentration causing a half-maximal inhibition of control-specific activity) and Hill coefficients (nH) were determined by nonlinear regression analysis of the inhibition/concentration–response curves using Hill equation curve fitting as described earlier[37].
as §3, §4, §5

[6] = tested on: Enzyme; experiment: Secondary pharmacology panel, target #15
Protocol: as §6, §3, §4, §5

[7] = tested on: Enzyme; experiment: Secondary pharmacology panel, target #25
Protocol: as §6, §3, §4, §5

[8] = tested on: Dd2 bc-1 ELQ-300; experiment: [3H]-hypoxanthine incorporation assay, Dd2 bc-1 ELQ-300 resistant; type: cell-based, Plasmodium falciparum; settings: Plasmodium falciparum, DD2
Protocol: Supplementary Table 3: Compound 9 and 12 retain their activity against Pf strains harbouring mutations to novel antimalarial agents in clinical development. Compound 9 and 12 were tested for their antiplasmodial activity against a panel of Pf strains known to harbour mutations conferring resistance to novel agents under clinical development. Parasite growth inhibition is measured using the [3H]-hypoxanthine incorporation assay. IC50s are established for each strain (n ≥2) and compared to the IC50 of Dd2 (standard pan-resistant […]

[9] = in vitro; type: in vitro ADME; settings: pH 7.4, Michaelis-Menten
Protocol: Supplementary Note 3: Metabolism of 12 in the presence of mouse (MLM) and human […]
The kinetics of metabolism of compound 12 to form the N-demethylated metabolite, 9, was studied by incubating 12 with HLM or MLM. Compound 12 was incubated with 1 mg/mL of pooled liver microsomes at four different compound concentrations (5, 10, 20 and 30 μM) in 166 µL of buffer containing 100 mM phosphate buffer, pH 7.4 and 1 mM NADPH, at 37°C.
Aliquots of 20 µL of incubation mix were quenched with 4 volumes of ice-cold acetonitrile at different time points, i.e., 0, 5, 10, 20 and 30 min in a 96 well microtitre plate. The quenched plate was centrifuged at 4000 rpm for 15 min and 20 µL of the supernatant was diluted to 200 µL with 50% acetonitrile in water. Depletion of 12 and formation of 9 was analysed by LC-MS/MS. Concentrations of 12 and 9 were determined using calibration curves prepared with synthetic standards. Kinetics of metabolite formation or parent depletion is shown in supplementary Fig. 5, Fig. 6 and kinetic parameters are described in supplementary Table […]
The rate and extent of metabolite formation in the presence of mouse liver microsomes was […]
than in the presence of HLM.

[10] = Binding Ki / Enzyme IC50, Target #3, AChE

T1 sequence (P22303 32-614): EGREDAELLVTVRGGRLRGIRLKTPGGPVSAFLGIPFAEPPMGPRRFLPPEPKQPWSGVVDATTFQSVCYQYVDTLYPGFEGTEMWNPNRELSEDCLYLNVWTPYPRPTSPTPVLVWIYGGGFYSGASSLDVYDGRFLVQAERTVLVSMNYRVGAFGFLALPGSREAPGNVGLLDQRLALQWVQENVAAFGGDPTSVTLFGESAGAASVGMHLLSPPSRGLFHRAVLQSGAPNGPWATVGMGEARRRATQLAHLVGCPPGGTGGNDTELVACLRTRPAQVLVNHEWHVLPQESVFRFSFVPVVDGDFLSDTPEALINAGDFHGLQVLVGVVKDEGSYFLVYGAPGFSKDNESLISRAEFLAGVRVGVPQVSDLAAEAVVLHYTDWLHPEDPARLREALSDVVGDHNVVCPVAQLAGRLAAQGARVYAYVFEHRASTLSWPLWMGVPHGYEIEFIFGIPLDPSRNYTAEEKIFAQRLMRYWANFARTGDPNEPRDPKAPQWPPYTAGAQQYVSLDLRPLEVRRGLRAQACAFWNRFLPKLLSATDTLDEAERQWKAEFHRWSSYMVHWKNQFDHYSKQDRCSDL

Compound | Selectivity ratio for AChE (IC50 / blood Cmin at ED90 in the Pf/SCID model) [1] | IC50 [1, 10] [nM] | IC50 ([1]; read-out: AChE IC50) [nM] | IC50 [2] [nM] | Ki [2] [nM] | Selectivity ratio for M2 (IC50 / blood Cmin at ED90 in the Pf/SCID model) [2] | Binding Ki / Enzyme IC50 [3] [nM] | Binding Ki / Enzyme IC50 [4] [nM] | Binding Ki / Enzyme IC50 [5] [nM] | Binding Ki / Enzyme IC50 [6] [nM] | Binding Ki / Enzyme IC50 [7] [nM] | selectivity against AChE ([1]; relative to Pf potency) | IC50 [8] [nM] | Km ([9]; human, HLM) [µM] | Km ([9]; mouse, MLM) [µM]
Cc1cc(Nc2ncc(N3CCN(C)CC3)c(N3CCCC3)n2)ccn1 [compound 2] | < 1 | 179 | 160 | 1600 | 1100 | < 1 | 17100 | > 100000 | > 100000 | 13000 | > 100000 | – | – | – | –
Cc1nc(Nc2ncc(N3CCN(C)[C@H](C)C3)c(Nc3cc(C)n(C)n3)n2)cc(C2CC2)c1F [compound 12, (R)-N2-(4-cyclopropyl-5-fluoro-6-methylpyridin-2-yl)-N4-(1,5-dimethyl-1H-pyrazol-3-yl)-5-(3,4-dimethylpiperazin-1-yl)pyrimidine-2,4-diamine] | – | 78000 | > 75000 | 2000 | 1050 | – | 3850 | 2210 | 4290 | 11600 | > 100000 | > 1,000 fold | 8.2 | 22.5 | 78.3
